The text below walks through data of patent publication US12667538B2, “Vilazodone pharmaceutical composition, preparation method therefor and use thereof” (SHANGHAI YONSUN BIOTECHNOLOGY CO., LTD., priority 2020, dated 2026).

Structures are written as SMILES.

The data set can be described thus: Particle size and distribution on a laser particle analyzer. It counts as physicochemical. The following applies: drug substance used for formulas 14-23. The procedure:
According to formula 1 shown in Table 1, the raw and auxiliary materials were weighed out and well mixed to obtain the suspension. The particle size was measured on a laser particle analyzer (parameter settings: dispersion medium: water; refractive index of dispersion medium: 1.333; absorbance of sample material: 0.05; refractive index of sample material: 1.711). The particle size morphology of the particles in the ground suspension was observed under a polarized light microscope. The particle size morphology of the solid particles of vilazodone in the suspension under the polarized light microscope is shown in FIG. 2.
The particle size of formulas 3, 4 and 5 and the distribution thereof were measured on a laser particle analyzer using the following parameter settings: dispersion medium: water; refractive index of dispersion medium: 1.333; absorbance of sample material: 0.05; refractive index of sample material: 1.711. The particle size and the distribution of formula 6 were measured on a nano particle size analyzer (NICOMP Particle Sizing Systems) using the following parameter settings: dispersion medium: water; refractive index of dispersion medium: 1.333; viscosity: 0.933 cp; temperature: 23° C.; luminous intensity setting: 300 kHz.
The particle size of formula 7 and the distribution thereof were measured on a laser particle analyzer using the following parameter settings: dispersion medium: water; refractive index of dispersion medium: 1.333; absorbance of sample material: 0.05; refractive index of sample material: 1.711. […]
According to the formulas shown in Table 12, the drug substance of different particle sizes and auxiliary materials were weighed out and well mixed by stirring to form suspensions, and formulas 8-13 were obtained. The particle size and the distribution thereof were measured on a laser particle analyzer using the following parameter settings: dispersion medium: water; refractive index of dispersion medium: 1.333; absorbance of sample material: 0.05; refractive index of sample material: 1.711. […]

`Cl.N#Cc1ccc2[nH]cc(CCCCN3CCN(c4ccc5oc(C(N)=O)cc5c4)CC3)c2c1` [Vilazodone hydrochloride, 2-benzofurancarboxamide, 5-[4-[4-(5-cyano-1H-indol-3-yl)butyl]-1-piperazinyl] hydrochloride (1:1)]: the D10 was 8.4 μm, the D50 came out at 20.6 μm and the D90 amounted to 43.9 μm.
